# Test results published in paper PMC8899820, “Pharmacokinetics, Tissue Distribution, and Excretion Characteristics of a Radix Polygoni Multiflori Extract in Rats” (Frontiers in Pharmacology, 2022).
# Like-named read-outs stand apart in the source and are kept apart here.
# Tests used:
# [1] = Excretion into urine and feces and mass balance after oral RPM extract; settings: for dose excreted: Sprague-Dawley, rat, po; for cumulative excretion into feces: rat feces
# Protocol: (§1) For the excretion study, the rats were housed singly in metabolic cages with urine collection tubes kept at 4 °C during sample collection. Urine and fecal samples were collected at time intervals of 0–4, 4–8, 8–24, 24–32, and 32–48 h after a single dose of RPM extract at 18 g/kg and then weighed. Another six rats were anesthetized with pentobarbital, fixed in the supine position and subjected to bile duct drainage surgery, and the abdominal wound was sutured. Blank bile samples were collected before the administration of RPM. The rats were weighed, and the state of the rats was observed. Subsequently, they were orally administered 18 g/kg RPM extract. The bile samples were collected at time intervals of 0–1, 1–2, 2–4, 4–6, 6–8, 8–24, 24–32 and 32–48 h. The urine, feces, and bile samples were stored at −70°C until use.
# (§2) Samples were prepared using the protein precipitation process. […] After vortex shaking for 5 min and centrifugation at 14,000 g for 5 min, 150 μL of the organic layer was transferred to a clean tube and evaporated to dryness at 25°C under a stream of nitrogen. The residue was reconstituted in 50 μL of the initial mobile phase and subjected to another round of centrifugation at 14,000 g for 5 min, and 5 μL of the supernatant was injected for LC–MS/MS analysis. […] Urine and bile samples were centrifuged at 4°C and 12,000 × g for 15 min. Fecal samples were homogenized in 0.9% saline and then centrifuged at 4°C and 12,000 × g for 15 min to gather the fecal homogenates. Tissue homogenate, urine, bile and fecal samples were subjected to a similar process as the rat plasma samples.
# (§3) For the excretion study, 6 rats were placed in metabolic cage after orally administered with 18 g/kg RPM extract, and urine, feces samples were collected at time intervals of 0–4, 4–8, 8–24, 24–32, 32–48, 48–60, and 60–72 h. Another 6 rats were anesthetized with pentobarbital, fixed in the supine position and performed bile duct drainage operation, and the abdominal wound was sutured. […] Subsequently, they were orally administered with 18 g/kg RPM extract. The bile samples were collected at time intervals of 0–1, 1–2, 2–4, 4–6, 6–8, 8–24, 24–32 and 32–48 h. The urine, feces, and bile samples were stored at −70 °C until use.
# [2] = ref Liu et al., 2010; cited from earlier work
# [3] = Biliary excretion in bile duct drained rats after oral RPM extract; settings: single p.o. RPM extract 18 g/kg, rat bile
# Protocol: as §1, §2, §3
# [4] = Tissue distribution of RPM constituents after oral RPM extract; settings: for AUC(0-t): Sprague-Dawley, rat, po, 18 g/kg
# Protocol: For the tissue distribution study, 18 rats were randomly divided into three groups (n = 6, each) and orally administered 18 g/kg RPM extract. The rats under isoflurane anesthesia were sacrificed by bleeding from the abdominal aorta at 5, 15, and 60 min (six rats per time point) after gavage with 18 g/kg RPM extract. Subsequently, the heart, liver, spleen, lung, kidney, brain, stomach, small intestine, bladder, and gonads (testes of male rats, and uterus and ovaries of female rats) were immediately collected. An accurately weighed amount of fresh tissue sample (0.25 g) was individually homogenized with normal saline (1 ml) and transferred (50 μL) as a tissue homogenate to 1.5 ml centrifuge tubes for use as the tissue samples. All tissue samples were stored at −70°C until analysis.
# Samples were prepared using the protein precipitation process. […] The tissue samples were homogenized in four parts of ice-cold 0.9% saline solution and then centrifuged at 4°C and 12,000 × g for 10 min to obtain tissue homogenates. […] Tissue homogenate, urine, bile and fecal samples were subjected to a similar process as the rat plasma samples.
# For the tissue distribution study, 18 rats were randomly divided into three groups (n=6, each), and orally administered with 18 g/kg RPM extract. The rats were sacrificed at 5, 15, 60 min after orally administering RPM. Subsequently, the heart, liver, spleen, lung, kidney, brain, stomach, small intestine, bladder, gonad (testes of male rats, uterus and ovaries of female rats) were immediately collected. An accurately weighed amount of fresh tissue sample (0.25 g) was individually homogenized with normal saline (1 mL) and transferred (50 μL) as a tissue homogenate to 1.5 mL centrifuge tubes for use as the tissue samples.
# [5] = RPM extract 36 g/kg p.o., rat plasma, Mean ± SD, n = 6; ref Cheng et al., 2020; cited from earlier work
# [6] = Dose-exposure relationship (power function model with confidence interval method)
# Protocol: (§4) The pharmacokinetic parameters, including the area under the plasma concentration-time curve from time zero to time t (AUC0-t) to time infinity (AUC0-∞), the time to reach the maximum plasma concentration (T max), the elimination half-time (t 1/2), and the maximum plasma concentration (C max), were calculated using the pharmacokinetic software Phoenix® WinNonlin®, version 7.0 (Scientific Consulting Inc., Apex, NC, United States). Data are expressed as the mean ± standard deviation (SD) for each group. The dose-exposure relationship was evaluated by the power function model combined with the confidence interval method ([Smith et al., 2000]; [Sethuraman et al., 2007]; [Hummel et al., 2009]). First, the administration dose, AUC0-∞ and C max were logarithmically transformed, and then a linear regression was performed to obtain the curve correlation coefficient (R^2), slope and 90% confidence interval (90% CI).
# [7] = Plasma pharmacokinetics of RPM constituents after oral RPM extract; settings: for time at which C max was exhibited: RPM extract p.o.; for AUC(0-inf) / AUC(0-t) / Cmax / MRT inf / Tmax / half-life: Sprague-Dawley, rat, plasma, po
# Description: For the pharmacokinetic (PK) study, three groups (n = 6 each) of rats were orally administered RPM extract (6, 18, and 36 g/kg). In the plasma pharmacokinetics experiment, doses were 6, 18, and 36 g/kg for the single administration group and 18 g/kg for the continuous administration group. The doses were set at a subtoxic level ([Zhang et al., 2013]; [Wang et al., 2015]) to investigate the pharmacokinetic profiles of the constituents of RPM (36 g/kg group) and were approximately 60 times the upper dose (6 g/day) for humans recommended by the 2020 edition of Chinese Pharmacopoeia ([Chinese Pharmacopoeia Commission, 2020]), which was converted to a dose for rats based on body surface area conversion ([Reagan-Shaw et al., 2008]). In addition, the low and medium doses decreased in a certain proportion. Serial blood samples (∼120 μL; before dosing and at 5, 15, and 30 min, and 1, 2, 4, 6, 8, 12, and 24 h after administration) were collected in heparinized tubes from the orbital sinus under light isoflurane. The blood samples were centrifuged at 12000 g for 2 min, and the plasma fractions were decanted and frozen at −70°C until analysis.
# Samples were prepared using the protein precipitation process. Rat plasma (50 μL) spiked with 10 μL of IS (puerarin 100 ng/ml) was extracted with 150 μL acetonitrile. After vortex shaking for 5 min and centrifugation at 14,000 g for 5 min, 150 μL of the organic layer was transferred to a clean tube and evaporated to dryness at 25°C under a stream of nitrogen. The residue was reconstituted in 50 μL of the initial mobile phase and subjected to another round of centrifugation at 14,000 g for 5 min, and 5 μL of the supernatant was injected for LC–MS/MS analysis.
# The analysis was performed on an AB Sciex API 5500 Q Trap mass spectrometer (Toronto, Canada), interfaced with a Waters Acquity UPLC separation module.
# as §4
# [8] = set-up: method as in Wang P. et al., 2011; settings: ref Wang P. et al., 2011, cited from earlier work
# [9] = feces, Recovery in feces (%), mass balance, 18 g/kg RPM extract p.o., feces collected 0–72 h
# [10] = urine and feces, Recovery in urine and feces (%), mass balance, 18 g/kg RPM extract p.o., urine plus feces, 0–72 h
# [11] = urine, Recovery in urine (%), mass balance, 18 g/kg RPM extract p.o., urine collected 0–72 h
# [12] = single p.o. RPM extract 18 g/kg
# [13] = single p.o. RPM extract 18 g/kg, rat urine
# [14] = AUC0-∞ vs p.o. dose of RPM extract, critical interval 0.88–1.12
# [15] = C max vs p.o. dose of RPM extract, critical interval 0.80–1.20
# [16] = log AUC0-∞ vs log p.o. dose of RPM extract, critical interval 0.88–1.12
# [17] = log C max vs log p.o. dose of RPM extract, critical interval 0.80–1.20
# [18] = both, bladder, AUC0-t in bladder, rat tissue: bladder, 18 g/kg RPM extract p.o., tissues collected at 5, 15, 60 min
# [19] = both, heart, AUC0-t in heart, rat tissue: heart, 18 g/kg RPM extract p.o., tissues collected at 5, 15, 60 min
# [20] = both, kidney, AUC0-t in kidney, rat tissue: kidney, 18 g/kg RPM extract p.o., tissues collected at 5, 15, 60 min
# [21] = both, liver, AUC0-t in liver, rat tissue: liver, 18 g/kg RPM extract p.o., tissues collected at 5, 15, 60 min
# [22] = both, lung, AUC0-t in lung, rat tissue: lung, 18 g/kg RPM extract p.o., tissues collected at 5, 15, 60 min
# [23] = both, spleen, AUC0-t in spleen, rat tissue: spleen, 18 g/kg RPM extract p.o., tissues collected at 5, 15, 60 min
# [24] = both, stomach, AUC0-t in stomach, rat tissue: stomach, 18 g/kg RPM extract p.o., tissues collected at 5, 15, 60 min
# [25] = female, ovary, AUC0-t in ovary, rat tissue: ovary, 18 g/kg RPM extract p.o., tissues collected at 5, 15, 60 min
# [26] = female, uterus, AUC0-t in uterus, rat tissue: uterus, 18 g/kg RPM extract p.o., tissues collected at 5, 15, 60 min
smiles,measurement,setting,value
"Cc1cc(O)c2c(c1)C(=O)c1cc(O)cc(O)c1C2=O [Emodin, emodin]",dose excreted,[1]; [9],23.6%
same,dose excreted,[1]; [10],32.5%
same,dose excreted,[1]; [11],8.82%
same,cumulative excretion into feces,[1]; [12],50.3 ± 6.18 nmol
same,cumulative excretion into urine,[1]; [13],19.0 ± 3.81 nmol
same,logP,[2],5.03
same,cumulative excretion into bile,[3],70.7 ± 20.4 nmol
same,AUC(0-t),"[4]; both, bladder",0.988 µM·h
same,AUC(0-t),"[4]; both, brain",0.244 µM·h
same,AUC(0-t),"[4]; both, heart",1.64 µM·h
same,AUC(0-t),"[4]; both, intestine",5.57 µM·h
same,AUC(0-t),"[4]; both, kidney",2.83 µM·h
same,AUC(0-t),"[4]; both, liver",6.36 µM·h
same,AUC(0-t),"[4]; both, lung",7.11 µM·h
same,AUC(0-t),"[4]; both, spleen",19.1 µM·h
same,AUC(0-t),"[4]; both, stomach",1.72 µM·h
same,AUC(0-t),"[4]; female, ovary",0.57 µM·h
same,AUC(0-t),"[4]; female, uterus",0.773 µM·h
same,AUC(0-t),"[4]; male, testis",0.116 µM·h
same,AUC0-t in spleen,"[4]; rat tissue: spleen, 18 g/kg RPM extract p.o., tissues collected at 5, 15, 60 min",19.1 µM·h
same,AUC0-∞,[5],"2,970 ± 863 nmol·h/L"
same,AUC(0-t),[5],"2,540 ± 694 nmol·h/L"
same,Cmax,[5],648 ± 125 nM
same,Conclusion (dose-exposure relationship),[6]; [14],Nonlinear correlation
same,Conclusion (dose-exposure relationship),[6]; [15],Nonlinear correlation
same,Slope (90%CI),[6]; [16],0.466 (0.290–0.642)
same,Slope (90%CI),[6]; [17],0.656 (0.554–0.758)
same,time at which C max was exhibited,[7]; rat plasma,≤ 20 min
same,AUC(0-inf),[7]; 6 g/kg,1.35 µM·h
same,AUC(0-t),[7]; 6 g/kg,1.04 µM·h
same,Cmax,[7]; 6 g/kg,205 ± 39.4 nM
same,MRT inf,[7]; 6 g/kg,12.7 ± 4.65 h
same,Tmax,[7]; 6 g/kg,0.12 ± 0.07 h
same,half-life,[7]; 6 g/kg,7.72 ± 3.67 h
same,AUC(0-inf),[7]; 18 g/kg,2.91 µM·h
same,AUC(0-t),[7]; 18 g/kg,2.48 µM·h
same,Cmax,[7]; 18 g/kg,491 ± 35.8 nM
same,MRT inf,[7]; 18 g/kg,13 ± 4.18 h
same,Tmax,[7]; 18 g/kg,0.14 ± 0.09 h
same,half-life,[7]; 18 g/kg,9.44 ± 3.63 h
"COc1cc(O)c2c(c1)C(=O)c1cc(C)cc(O)c1C2=O [Physcion, physcion]",Peff,[8]; colon,(7.45 ± 3.30) × 10^–3 cm/min
same,Peff,[8]; duodenum,(3.32 ± 1.50) × 10^–3 cm/min
same,Peff,[8]; ileum,(2.40 ± 0.58) × 10^–3 cm/min
same,Peff,[8]; jejunum,(2.30 ± 1.57) × 10^–3 cm/min
same,plasma concentrations,"[7]; RPM extract 6, 18 and 36 g/kg p.o., rat plasma",too low to be detected
"COc1cc(O)cc2c1C(=O)c1c(O)cc(CO)cc1C2=O [Questinol, questinol]",dose excreted,"[1]; urine and feces, recovery from the urine and feces, single p.o. RPM extract 18 g/kg, rats",4.12%
same,cumulative excretion into feces,[1]; [12],0.566 ± 0.0666 nmol
same,detection in urine,[1]; [13],not have been detected
same,detection in bile,[3],not detected
same,AUC(0-t),[4]; [18],0.0169 µM·h
same,AUC(0-t),[4]; [19],0.034 µM·h
same,AUC(0-t),[4]; [20],0.0243 µM·h
same,AUC(0-t),[4]; [21],0.0553 µM·h
same,AUC(0-t),[4]; [22],0.0251 µM·h
same,AUC(0-t),[4]; [23],0.0103 µM·h
same,AUC(0-t),[4]; [24],0.0061 µM·h
same,AUC(0-t),[4]; [25],0.0168 µM·h
same,AUC(0-t),[4]; [26],0.0186 µM·h
same,AUC0-∞,[5],57.5 ± 9.45 nmol·h/L
same,AUC(0-t),[5],47.3 ± 6.85 nmol·h/L
same,Cmax,[5],4 ± 0.673 nM
same,MRT0-∞,[5],13.6 ± 4.21 h
same,T max,[5],4.38 ± 4.03 h
same,t 1/2,[5],8.90 ± 2.70 h
same,Conclusion (dose-exposure relationship),[6]; [14],Nonlinear correlation
same,Conclusion (dose-exposure relationship),[6]; [15],Uncertainty of linear relationship
same,Slope (90%CI),[6]; [16],0.551 (0.275–0.827)
same,Slope (90%CI),[6]; [17],0.774 (0.610–0.938)
same,AUC(0-inf),[7]; 6 g/kg,0.027 ± 0.0228 µM·h
same,AUC(0-t),[7]; 6 g/kg,0.00861 ± 0.00169 µM·h
same,Cmax,[7]; 6 g/kg,1.09 ± 0.317 nM
same,MRT inf,[7]; 6 g/kg,12.2 ± 2.93 h
same,Tmax,[7]; 6 g/kg,3.5 ± 2.17 h
same,half-life,[7]; 6 g/kg,8 ± 2.01 h
same,AUC(0-inf),[7]; 18 g/kg,0.0583 ± 0.0143 µM·h
same,AUC(0-t),[7]; 18 g/kg,0.0401 ± 0.00898 µM·h
same,Cmax,[7]; 18 g/kg,3.54 ± 0.652 nM
same,MRT inf,[7]; 18 g/kg,20.6 ± 13.5 h
same,Tmax,[7]; 18 g/kg,1.83 ± 1.8 h
same,half-life,[7]; 18 g/kg,14.4 ± 9.99 h
"COc1cc(O[C@@H]2O[C@H](CO)[C@@H](O)[C@H](O)[C@H]2O)c2c(O)c(C(C)=O)c(C)cc2c1 [TG, torachrysone-8-O-glucoside]",dose excreted,[1]; [9],27.9%
same,dose excreted,[1]; [10],45.5%
same,dose excreted,[1]; [11],17.6%
same,cumulative excretion into feces,[1]; [12],30.4 ± 5.73 nmol
same,cumulative excretion into urine,[1]; [13],19.1 ± 2.99 nmol
same,cumulative excretion into bile,[3],8.96 ± 2.38 nmol
same,AUC(0-t),[4]; [18],0.438 µM·h
same,AUC(0-t),"[4]; both, brain, AUC0-t in brain, rat tissue: brain, 18 g/kg RPM extract p.o., tissues collected at 5, 15, 60 min",0.0185 µM·h
same,AUC(0-t),[4]; [19],1.78 µM·h
same,AUC(0-t),"[4]; both, intestine, AUC0-t in intestine, rat tissue: intestine, 18 g/kg RPM extract p.o., tissues collected at 5, 15, 60 min",0.181 µM·h
same,AUC(0-t),[4]; [20],0.845 µM·h
same,AUC(0-t),[4]; [21],3.81 µM·h
same,AUC(0-t),[4]; [22],0.438 µM·h
same,AUC(0-t),[4]; [23],1.19 µM·h
same,AUC(0-t),[4]; [24],1.46 µM·h
same,AUC(0-t),[4]; [25],0.153 µM·h
same,AUC(0-t),[4]; [26],0.38 µM·h
same,AUC(0-t),"[4]; male, testis, AUC0-t in testis, rat tissue: testis, 18 g/kg RPM extract p.o., tissues collected at 5, 15, 60 min",0.0698 µM·h
same,AUC0-∞,[5],53.0 ± 18.3 nmol·h/L
same,AUC(0-t),[5],51.9 ± 18.1 nmol·h/L
same,Cmax,[5],45.8 ± 9.94 nM
same,MRT0-∞,[5],2.10 ± 0.24 h
same,t 1/2,[5],2.00 ± 0.63 h
same,Conclusion (dose-exposure relationship),[6]; [14],Uncertainty of linear relationship
same,Slope (90%CI),[6]; [16],0.720 (0.464–0.977)
same,Slope (90%CI),[6]; [17],0.756 (0.627–0.884)
same,time at which C max was exhibited,[7]; rat plasma,≤ 20 min
same,AUC(0-inf),[7]; 6 g/kg,0.0166 ± 0.0109 µM·h
same,AUC(0-t),[7]; 6 g/kg,0.0158 ± 0.0106 µM·h
same,Cmax,[7]; 6 g/kg,12.4 ± 2.66 nM
same,MRT inf,[7]; 6 g/kg,1.58 ± 0.77 h
same,Tmax,[7]; 6 g/kg,0.19 ± 0.09 h
same,half-life,[7]; 6 g/kg,1.23 ± 0.58 h
same,AUC(0-inf),[7]; 18 g/kg,0.0495 ± 0.0171 µM·h
same,AUC(0-t),[7]; 18 g/kg,0.048 ± 0.0172 µM·h
same,Cmax,[7]; 18 g/kg,37.3 ± 4.57 nM
same,MRT inf,[7]; 18 g/kg,2.23 ± 0.3 h
same,Tmax,[7]; 18 g/kg,0.11 ± 0.07 h
same,half-life,[7]; 18 g/kg,1.9 ± 0.22 h
